Laboratory results from a melting point compilation (Tetko et al.; mined from patent text by program, amines drawn as free bases though some values may be those of a salt).

| melting point [°C] | SMILES |
| --- | --- |
| 68 to 71 | COC(=O)C1=C(C)NC(C)=C(C(=O)OCCCCCCOc2cc(-c3ccccc3)[nH]n2)C1c1cccc(Cl)c1Cl (stereo not drawn) |
| 150 to 152 | Cn1nc(OC2=CC(CF)(CF)Oc3ccc(C(F)(F)C(F)(F)F)cc32)ccc1=O |
| 88.5 to 90 | O[C@H]1c2ccccc2C=C[C@@H]1OC(C(F)(F)F)C(F)(F)F |
| 188 | C=Cn1nc(-c2c(-c3ccccc3)nn3ccccc23)ccc1=O |
| 37 to 38 | CCCCCCCCCCCCC(O)CN(CCC#N)CCCCCCCCCCCCN(CCC#N)CC(O)CCCCCCCCCCCC (stereo not drawn) |
| 205 to 206 | Cc1ccc2oc(=O)n(-c3ccnc(NC(=O)NCc4ccccn4)c3)c2c1 |
| 220 to 225 | CC12CCC3c4ccc(O)cc4C(O)C(Sc4ccc(O)cc4)C3C1CCC2O (stereo not drawn) |
| 132 to 134 | Cn1c(-c2ccccc2[N+](=O)[O-])nc2ccccc21 |
| 79 to 80 | c1ccc(C(Cc2nc(COc3ccc(CCCn4ccnc4)cc3)co2)c2ccccc2)cc1 |
| 161 to 162 | O=S(=O)(CCCCl)Nc1ccc(Oc2cccc3cccnc23)cc1 |
| 161 to 165 | O=c1[nH]c2cc(Cl)cc(Cl)c2c(=O)n1Cc1cccc(Br)c1 |
| 111 to 112 | COc1cc(OCc2nc(-c3ccco3)oc2C)ccc1C=O |
| 191 to 192 | CCCC(=O)Nc1cc([N+](=O)[O-])c(Sc2cccc3cnccc23)cc1N |
| 75 to 76.5 | CC(=O)c1ccc(OCC=C(C)CSCc2ccccc2)cc1 |
| 138 to 140 | COc1ccc2cc(-c3ccnc(NCCc4ccc(OC)c(OC)c4)n3)cc(N3CCNCC3)c2c1 |
| 109 to 112 | CCOC(=O)C1=C(COCCO)Nc2ccnc(OC(C)C)c2C1c1ccccc1C(F)(F)F (stereo not drawn) |
| 108 to 110 | O=CC1=Cc2cc(OCc3ccc(C(F)(F)F)cc3)ccc2OC1 |
| 106 to 108 | Fc1cc(F)c(-c2c(Cl)nc3nccn3c2N2CCCCCC2)c(F)c1 |
| 170 to 173 | O=C(O)c1coc2ccc(OCc3ccccc3)cc2c1=O |
| 188 to 190 | CC(=O)C1=CCC2C3CCC4CC(O)CCC4(C)C3=CCC12C (stereo not drawn) |
| 143 to 145 | CC1=C2CCc3cc(C)ccc3N2CCC1=O |
| 142 to 143 | CC(C1CC1)C1NNC(=S)N(N)C1=O (stereo not drawn) |
| 48 to 50 | N#Cc1cc(Cl)c(F)cc1F |

| melting point [°C] | SMILES |
| --- | --- |
| 85 to 88 | CCC(CC)Nc1cc(C)nc(Oc2c(C)cc(C)cc2C)c1C(N)=O |
| 159 to 160 | [N-]=[N+]=NC1=CN(CC(F)(F)F)c2ccccc2C(c2ccccc2)=N1 |
| 132 to 133 | CC(=O)c1cc(F)ccc1Oc1nc2ccc([N+](=O)[O-])cc2cc1Cc1ccccc1 |
| 250 to 252 | O=C1CCC(N2Cc3c(CNC(=O)Nc4cccc(Cl)c4)cccc3C2=O)C(=O)N1 (stereo not drawn) |
| 96 to 97 | Cc1ccc(C)c(-c2ccc(C#N)c(C)c2)c1 |
| 153 to 154 | CCc1cc(Nc2ccc(N)cc2)n2nccc2n1 |
| 82 to 83 | N#Cc1ccc(OCc2ccc(F)cc2)cc1 |
| 91 to 92 | Cc1ccc(S(=O)(=O)OC[C@H](O)c2ccc(OCc3ccccc3)cc2)cc1 |
| 76 to 77 | CC(=O)c1c(-c2ccccc2)n(C)c2ccccc12 |
| 158 to 160 | CC1(Nc2ccccc2)OC(=O)C=C1c1ccccc1 (stereo not drawn) |
| 79 to 81 | CC(=O)CCSc1cc(C(C)(C)C)c(O)c(C(C)(C)C)c1 |
| 162 to 163 | COc1ccc(NC(=NC#N)NC(NC(=O)Cc2ccc(OC)c(OC)c2)C(C)(C)C)c(OC)n1 (stereo not drawn) |
| 94 to 96 | CCCCCCC/C=C/C(=O)NC1CCCCC1 |
| 177 to 179 | CC(C)c1cc(N(C)C)cc2c1C(=O)N(COC(=O)c1c(Cl)cccc1Cl)S2(=O)=O |
| 49 to 50 | CCCCCCCCCCOc1cc(OCCCCCCCCCC)cc(C(=O)C(=O)OC)c1 |
| 158 to 162 | O=C(O)CS(=O)(=O)C12CC3CC(CC(C3)C1)C2 |
| 52 to 54 | CCC(CC)N1CCN(C(=O)Oc2ccc(OC)cc2)CC1 |
| 103 to 106 | NC(=O)c1cn(C(CO)CCc2cccc(C(F)(F)F)c2)cn1 (stereo not drawn) |
| 90 to 92 | CCOC(=O)c1cnn(-c2ccc(OCC(C)(C)C)c(C#N)c2)c1Cl |
| 155 to 158 | COc1cc(Oc2cccc3c2NC(=O)C3SC)cc(OC)c1OC (stereo not drawn) |
| 174 to 176 | CC(C)c1cc2c(c3c1C(=O)N(CCl)S3(=O)=O)OCO2 |
| 116 to 117 | CON=C(C(=O)O)c1cc2sccc2s1 |
| 202 to 203 | Nc1ncnc2c1c(-c1ccc(F)cc1)cn2-c1ccccc1 |

| melting point [°C] | SMILES |
| --- | --- |
| 148 | COc1ccc(COc2ccc(C(=O)NC[C@@H](C(=O)NO)N3CCN(S(C)(=O)=O)CC3)cc2)cc1 |
| 119 to 121 | Cc1cc(C)nc(NCSC(=S)N2CCOCC2)n1 |
| 175 to 177 | CNC(=O)N(O)CCCNC(=O)c1cccc(Oc2ccccc2)c1 |
| 144 | CC(C)(C)c1cc2c(cc1O)OC(C(=O)O)=CO2 |
| 288 to 289 | COc1ccc(C(=O)Nc2c(Cl)cncc2Cl)c2c1OCC2CC(=O)NCc1ccccc1Cl (stereo not drawn) |
| 114 to 117 | CCCCNC(=O)C1Cc2c([nH]c3ccccc23)C(c2ccc3c(c2)OCO3)N1C(=O)C=Cc1ccccc1 (stereo not drawn) |
| 160 to 161 | COc1cc2ccccc2cc1NC(=O)N1CCN(c2cc(F)cc(F)c2)CC1 |
| 166 | CCCCNC(=O)Oc1cccc(NC(=O)C=C(C)OC)c1 |
| 140 to 142 | O=C(CCCCCC(=O)NCCc1c[nH]c2ccccc12)NO |
| 250 to 252 | Cn1c2ccc([N+](=O)[O-])cc2c2cc(C(=O)N3CCOCC3)sc21 |
| 146 to 147 | CCOC(=O)C(Cc1ccccc1)NC(=O)c1cc2cc(Cl)ccc2[nH]1 (stereo not drawn) |
| 224 to 226 | NS(=O)(=O)c1ccc(NC(=O)NC2CCCC2)cc1 |
| 105 | Cc1ccc(C23CCC(Cl)(CC2)CC3)cc1 |
| 270 to 273 | Cc1ccc(F)c(NS(=O)(=O)c2n[nH]c(NC=O)n2)c1F |
| 255 | CN1CCN(C(=O)OC2C3=C(SCCS3)C(=O)N2c2ccc3cccnc3n2)CC1 (stereo not drawn) |
| 200 to 204 | COC(=O)Nc1nc2cc(SCC3CCCCC3)ccc2[nH]1 |
| 87 to 92 | Cc1nn(C)c(N)c1C(=O)Nc1cccc(Cl)c1 |
| 121 | CCOC(=O)[C@H](Cc1ccc(-c2c(OC)cc(CO)cc2OC)cc1)NC(=O)c1c(Cl)cccc1Cl |
| 183 to 185 | N#CC(c1ccc(Cl)c(Cl)c1)c1c(Cl)cc(NN)cc1Cl (stereo not drawn) |
| 154 to 155 | O=C(NCc1ccc2c(c1)OCO2)c1ccc2n1Cc1ccccc1N(C(=O)CSc1ccc(Br)cc1)C2 |
| 188 to 191 | CN(C)c1ccc(NC(=O)N(CC2CCC(CN(C(=O)Nc3ccc(N(C)C)cc3)C3CC4CCC3C4)CC2)C2CC3CCC2C3)cc1 (stereo not drawn) |
| 164 to 167 | Cc1cc(C)cc(NC(=O)Cc2ccc(OC3(C(=O)O)CCOC3C)cc2)c1 (racemic) |
| 80 to 85 | CC(C)(C)c1ccc(S(=O)(=O)N2c3ccccc3C[C@H]2C(=O)NCc2ccc(CC(=O)O)cc2)cc1 |

| melting point [°C] | SMILES |
| --- | --- |
| 46 to 48 | Cc1cc(C2(C(F)(F)F)CC(n3cncn3)=NO2)ccc1NC(=O)OC(C)(C)C (stereo not drawn) |
| 164 | Cc1nc(C(=O)NS(=O)(=O)c2c(C)csc2C)no1 |
| 240 | COc1ccc(N2CCN(C(N)=O)C2=O)cc1OC |
| 123 to 125 | CCCCCC(=O)c1c(C)nc2cc(OC)c(OC)cc2c1-c1ccc(OC)c(OC)c1 |
| 68 to 69 | COC(=O)C[C@H](O)C[C@H](O)C=Cc1c(-c2ccc(F)cc2)c(-c2ccccc2)c(C(=O)NCc2ccc(F)cc2)n1C(C)C |
| 267 to 268 | O=[N+]([O-])c1ccc(Cl)c(S)c1 |
| 96 to 101 | CC(C)C(c1cccc(NC(=O)OCc2ccccc2)c1)c1c(O)c2c(oc1=O)CCCCCC2 (stereo not drawn) |
| 129 to 131 | CC(C)(C)OC(=O)N(CCCn1ncc2cc(C(=O)O)ccc21)c1ccccn1 |
| 141 to 143 | N#CC(=Cc1cccnc1)c1ccc(Cl)cc1 |
| 108 to 112 | COC(=O)c1ccc(CCN(C)CCCC(C#N)(c2cccc(C(=O)OC)c2)C(C)C)cc1 (stereo not drawn) |
| 208 to 210 | O=C1NC(=O)C(=Cc2ccc(N3CCC(NC[C@H](O)COc4ccccc4)CC3)cc2)S1 |
| 163 to 164 | OCCc1ccc(Nc2ncc3c(n2)-c2ccccc2C(c2ccc(Cl)cc2)C3)cc1 (stereo not drawn) |
| 167 to 168 | CCOC(=O)c1cc2c(OCc3ccccc3)cc(C)cc2[nH]1 |
| 197 to 207 | COc1cc2c(c(Cl)c1Cl)C(=O)C(C)(c1ccccc1)C2c1ccccc1 (stereo not drawn) |
| 118 to 123 | C[C@@H]1OCCN(c2cc(N3CCOCC3)nc(-n3c(N)nc4ccccc43)n2)[C@@H]1C (relative stereo) |
| 206 to 207 | O=C(O)c1cn(C2CCCC2)c2c(F)c(F)c(F)cc2c1=O |
| 170 to 177 | CCCC(NS(=O)(=O)c1ccc(Cl)cc1)C(=S)Nc1ccc(CC(=O)O)cc1 (racemic) |
| 94 to 96.5 | CCC(C(=O)N(C)C)n1cc(Cl)c(-c2ccccc2)n1 (stereo not drawn) |
| 67 to 69 | CC(=O)C12CC(C(C)=O)(C1)C2 |
| 168 to 170 | Fc1cccc2c1CN(NC1=NCCN1)C2 |

| SMILES | melting point [°C] |
| --- | --- |
| Clc1c(NC2=NCCN2)ccc2nsnc12 | 232 to 235 |
| CC12CC(Cl)C(O)CC1CCC1C2CCC2(C)C(O)C(N3CCCCC3)CC12 (stereo not drawn) | 232 to 234 |
| CCOC(=O)c1c(C)cc2c(=O)n(-c3cccc(Cl)c3)c(C)nc2c1C | 150 to 152 |
| COc1cc(C(C)=O)ccc1OCCN1C2CCC1CC(c1n[nH]c3ccccc13)C2 (stereo not drawn) | 154 to 155 |
| CCCCC1(N(C)C)CCC2(CC1)c1[nH]c3ccccc3c1CCN2C(=O)NCC (stereo not drawn) | 182 to 184 |
| O=C(Nc1cccc(Br)c1)NC1C(=O)N(CC23CC4CC(CC(C4)C2)C3)c2ccccc2N(c2ccccc2)C1=O (stereo not drawn) | 254 |
| CN(C)Cc1cccc(Cc2cnc(N[N+](=O)[O-])[nH]c2=O)c1 | 232 to 235 |
| Cc1nc2cc(NC(=O)c3cc4cccnc4n3Cc3cccc(F)c3)ccc2n1C | 242 to 244 |
| COC(=O)C12CCc3ccccc3C1=NN(C(=O)Nc1ccc(C(F)(F)F)cc1)C2 (stereo not drawn) | 177 to 180 |
